molecular target: recombinant SphK1 (Homo sapiens (Human), UniProt Q9NYA1); experiment: SphK1 scintillation proximity kinase assay; conditions: not given
Sequence (Q9NYA1 whole entry): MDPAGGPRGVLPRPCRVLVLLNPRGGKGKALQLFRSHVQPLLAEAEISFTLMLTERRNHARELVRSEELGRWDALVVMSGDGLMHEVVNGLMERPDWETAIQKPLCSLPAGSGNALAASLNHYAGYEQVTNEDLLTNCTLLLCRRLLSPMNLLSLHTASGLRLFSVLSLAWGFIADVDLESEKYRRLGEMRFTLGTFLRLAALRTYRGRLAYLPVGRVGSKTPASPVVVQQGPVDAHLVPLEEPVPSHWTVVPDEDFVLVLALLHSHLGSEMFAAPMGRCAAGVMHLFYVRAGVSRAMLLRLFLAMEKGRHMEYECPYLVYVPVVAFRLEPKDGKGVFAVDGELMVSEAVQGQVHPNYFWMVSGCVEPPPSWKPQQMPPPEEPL

Ki [µM]	Structure (SMILES)
1 to 10	CCCCCCCCCCCCCCCCC(=N)N [Compound 3, heptadecanimidamide]
1 to 10	CCCCCCCCCCCCc1ccc(-c2noc(C3(C(=N)N)CC3)n2)cc1 [Compound 11, 1-(3-(4-dodecylphenyl)-1,2,4-oxadiazol-5-yl) cyclopropanecarboximidamide]
< 1	CCCCCCCCCCCc1cc(-c2noc(C3(C(=N)N)CC3)n2)ccc1OC [Compound 14, 1-(3-(4-methoxy-3-undecylphenyl)-1,2,4-oxadiazol-5-yl)cyclopropanecarboximidamide]
1 to 10	CCCCCCCCc1ccc([C@H]2CC[C@H](NC(=N)N)CC2)cc1 [Compound 34, 1-((1R,4R)-4-(4-octylphenyl)-cyclohexyl)guanidine]
1 to 10	CCCCCCCCc1ccc(-c2noc(CNC(=N)N)n2)cc1 [Compound 46, 1-((3-(4-octylphenyl)-1,2,4-oxadiazol-5-yl)methyl)guanidine]
1 to 10	CCCCCCCCc1ccc(-c2noc([C@H](C)NC(=N)N)n2)cc1 [Compound 47, (S)-1-(1-(3-(4-octylphenyl)-1,2,4-oxadiazol-5-yl)ethyl)guanidine]
1 to 10	CCCCCCCCc1ccc(-c2noc([C@@H](NC(=N)N)C(C)C)n2)cc1 [Compound 48, (S)-1-(2-methyl-1-(3-(4-octylphenyl)-1,2,4-oxadiazol-5-yl)propyl)guanidine]
1 to 10	CCCCCCCCCCc1ccc(-c2noc([C@@H]3CCCN3C(=N)N)n2)cc1 [Compound 54, (S)-2-(3-(4-decylphenyl)-1,2,4-oxadiazol-5-yl)pyrrolidine-1-carboximidamide]
> 10	CCCCCCCCCCCCc1ccc(-c2noc([C@@H]3CCCN3C(=N)N)n2)cc1 [Compound 55, (S)-2-(3-(4-dodecylphenyl)-1,2,4-oxadiazol-5-yl)pyrrolidine-1-carboximidamide]
> 10	CCCCCCc1ccc(-c2noc([C@@H]3CCCN3C(=N)N)n2)cc1 [Compound 56, (S)-2-(3-(4-hexylphenyl)-1,2,4-oxadiazol-5-yl)pyrrolidine-1-carboximidamide]

same assay, conditions: read-out: SphK1 (estimated Ki range); Estimated Ki values at recombinant SphK1

Structure (SMILES)	Ki [µM]
CCCCCCCCCCCCc1ccc(C(=O)NNC(=N)N)cc1 [Compound 1, 2-(4-dodecylbenzoyl)hydrazine carboximidamide]	> 10
CCCCCCCCCCc1ccc(/C=C/CC(=N)N)cc1 [Compound 6, (E)-4-(4-decylphenyl)but-3-enimidamide]	> 10
CCCCCCCCCCCCc1ccc(-c2coc(C(C)C(=N)N)n2)cc1 (stereo not drawn) [Compound 18, 2-(4-(4-dodecylphenyl)oxazol-2-yl)propanimidamide]	> 10
CCCCCCCCCCCCc1ccc(-c2coc(CC(=N)N)n2)cc1 [Compound 19, 2-(4-(4-dodecylphenyl)oxazol-2-yl)acetimidamide]	> 10
CCCCCCCCCCCc1ccc(OC)c(-c2nnc(C3(C(=N)N)CC3)o2)c1 [Compound 24, 1-(5-(2-methoxy-5-undecylphenyl)-1,3,4-oxadiazol-2-yl)cyclopropanecarboximidamide]	< 1
CCCCCCCCCCCc1cc(-c2nnc(C3(C(=N)N)CC3)o2)ccc1OC [Compound 27, 1-(5-(4-methoxy-3-undecylphenyl)-1,3,4-oxadiazol-2-yl)cyclopropanecarboximidamide]	< 1
CCCCCCCCc1ccc(C(=O)NCCOC(=N)N)cc1 [Compound 33, 2-(4-octylbenzamido)ethyl carbamimidate]	> 10
CCCCCCCCc1ccc(CNC(=O)C2(NC(=N)N)CC2)cc1 [Compound 35, 1-guanidino-N-(4-octylbenzyl) cyclopropanecarboxamide]	> 10
CCCCCCCCCCCCc1ccc(NC(=O)C2(NC(=N)N)CC2)cc1 [Compound 36, N-(4-dodecylphenyl)-1-guanidinocyclopropane-carboxamide]	> 10
N=C(N)N1CCC[C@H]1c1nc(-c2ccc(I)cc2)no1 [Compound 37, (S)-2-(3-(4-iodophenyl)-1,2,4-oxadiazol-5-yl)pyrrolidine-1-carboximidamide]	> 10
CCCCCCCCc1noc([C@@H]2CCCN2C(=N)N)n1 [Compound 39, (S)-2-(3-octyl-1,2,4-oxadiazol-5-yl)pyrrolidine-1-carboximidamide]	> 10
CCCCCCCCCCCCc1noc([C@@H]2CCCN2C(=N)N)n1 [Compound 40, (S)-2-(3-dodecyl-1,2,4-oxadiazol-5-yl)pyrrolidine-1-carboximidamide]	> 10
CCCCCCCCCCCc1ccc(-c2noc(C3(NC(=N)N)CC3)n2)cc1 [Compound 43, 1-(1-(3-(4-undecylphenyl)-1,2,4-oxadiazol-5-yl)cyclopropyl)guanidine]	> 10

Next, values leading:

Ki [µM]	Structure (SMILES)
> 10	CCCCCCCCCCCCC/C=C/[C@@H](O)[C@@H](N)C(=N)N [Compound 2, (2S,3R,E)-2-amino-3-hydroxyoctadec-4-enimidamide]
> 10	CCCCCCCCCCCCC/C=C/CC(=N)N [Compound 4, (E)-heptadec-3-enimidamide]
> 10	CCCCCCCCCCc1ccc(CCCC(=N)N)cc1 [Compound 5, 4-(4-decylphenyl)butanimidamide]
> 10	CCCCCCCCc1ccc(CC[C@@H](N)C(=N)N)cc1 [Compound 8, (R)-2-amino-4-(4-octylphenyl)butanimidamide]
> 10	CCCCCCCCCCCCc1ccc(-c2noc(CC(=N)N)n2)cc1 [Compound 12, 2-(3-(4-dodecylphenyl)-1,2,4-oxadiazol-5-yl)acetimidamide]
< 1	CCCCCCCCCCCc1cc(-c2nnc(C3(C(=N)N)CC3)o2)c(OC)cc1OC [Compound 22, 1-(5-(2,4-dimethoxy-5-undecylphenyl)-1,3,4-oxadiazol-2-yl)cyclopropanecarboximidamide]
> 10	N=C(N)N1CCC[C@H]1c1nc(-c2ccc(C#CC3CCCC3)cc2)no1 [Compound 38, (S)-2-(3-(4-(cyclopentylethynyl)phenyl)-1,2,4-oxadiazol-5-yl)pyrrolidine-1-carboximidamide]
> 10	CCCCCCCCCCCCCCCCc1noc([C@@H]2CCCN2C(=N)N)n1 [Compound 41, (S)-2-(3-hexadecyl-1,2,4-oxadiazol-5-yl)pyrrolidine-1-carboximidamide]
> 10	CCCCCCCCc1ccc(-c2noc(C3(NC(=N)N)CC3)n2)cc1 [Compound 42, 1-(1-(3-(4-octylphenyl)-1,2,4-oxadiazol-5-yl)cyclopropyl)guanidine]
> 10	CCCCCCCCCCCCc1ccc(-c2noc(C3(NC(=N)N)CC3)n2)cc1 [Compound 44, 1-(1-(3-(4-dodecylphenyl)-1,2,4-oxadiazol-5-yl)cyclopropyl)guanidine]
> 10	CCCCCCCCc1ccc(-c2noc(CN(C)C(=N)N)n2)cc1 [Compound 45, 1-methyl-1-((3-(4-octylphenyl)-1,2,4-oxadiazol-5-yl)methyl)guanidine]
> 10	CCCCCCCCCCCCCCc1ccc(-c2noc([C@@H]3CCCN3C(=N)N)n2)cc1 [Compound 57, (S)-2-(3-(4-tetradecylphenyl)-1,2,4-oxadiazol-5-yl)pyrrolidine-1-carboximidamide]
> 10	CCCCCCCCc1cccc(-c2noc([C@@H]3CCCN3C(=N)N)n2)c1 [Compound 58, (S)-2-(3-(3-octylphenyl)-1,2,4-oxadiazol-5-yl)pyrrolidine-1-carboximidamide]

Source: US9688668B2, “Long chain base sphingosine kinase inhibitors” (UNIVERSITY OF VIRGINIA PATENT FOUNDATION, priority 2012, dated 2017)
